Data as given in US20240269306A1, “B7H4-TARGETED ANTIBODY-DRUG CONJUGATES AND METHODS OF USE THEREOF” (Mersana Therapeutics, Inc., priority 2021, published 2024).
Substitutions are numbered along the chain they refer to. pEC50: −log10 of the molar value. Where “and” joins values, the source holds several entries; their conditions need not be identical. Identical values can stand only once.

Columns and labels:
[1] = system: HEK-293-WT cells cocultured with CTV-labeled CD3+ T cells; test: T-cell suppression coculture assay with HEK-293-WT cells (Example 27); assay type: cell-based, human; details: HEK-293-WT coculture, antibody 50 nM, 4 day
Protocol: (§1) Next day, the media was removed and replaced with T cell media (Iscove's Modified Dulbecco's Medium with 10% FBS and 5% penicillin/streptomycin). […] Frozen human PBMCs (2.5×10^7 cells) were thawed and enriched for CD3+ T cells using Easy Step™ human T cell isolation kit (StemCell Technologies). CD3+ T cells were labeled with CellTrace™ Violet cell proliferation kit (CTV; ThermoFisher Scientific) and adjusted to 2×10^6 cells/mL. CTV-labeled T cells (1×10^5) were added to test article-treated HEK-293-WT or HEK-293-B7-H4 cells, stimulated with Immunocult™ Human CD3/CD28 T Cell Activator (StemCell Technologies), and incubated at 37° C. in 5% CO2. After 4 day of coculture of HEK-293-WT or HEK-293-B7-H4 with CTV-labeled T cells, T cell proliferation was assessed by the dilution of CTV-labeled T cells using flow cytometry. Cocultured cells (CTV-labeled T cells and HEK-293-WT/HEK-293-B7-H4 cells) from each group were transferred to a U-bottom 96-well plate, washed with PBS, stained with live/dead Fixable Aqua dead cell staining dye (ThermoFisher Scientific), and then additionally stained with fluorophore conjugated target specific or isotype control antibodies (FITC anti-human CD45, PE/Cy7 anti-human CD4, PE anti-human CD8). Cells were fixed and surface expression of the proteins of interest was determined by flow cytometry analysis on a MACSQuant flow cytometer. Data analysis was performed by FlowJo software using the following hierarchical flow: 1) single gate, 2) live cells, 3) CD45+ cells, and 4) diluted CTV (compared to unstimulated T cells). Percentage of proliferating CD4+ or CD8+ T cell were calculated using CD4+ combined with diluted CTV and CD8+ combined with diluted CTV, respectively. Data represent the mean (±standard deviation) of triplicate wells for each test article. Table 6 gives the population (%) of live cells, CD45+, proliferating CD4+ T cells, and proliferating CD8+ T cells for each condition.

[2] = system: HEK-293-B7-H4 cells cocultured with CTV-labeled CD3+ T cells; test: T-cell suppression coculture assay with HEK-293-B7-H4 cells (Example 27); assay type: cell-based, human; details: HEK-293-B7-H4 coculture; antibody 50 nM; 4 day; mean ± SD; two lines of values
Protocol: as §1

human B7-H4 [3] = biological target: T1, human B7-H4 (Homo sapiens, UniProt Q7Z7D3); test: ELISA binding of variant B7-H4 cytotoxic drug conjugates to B7-H4 protein (Example 28); details: Table 7
T1 construct: purchased R&D Systems 6576-B7-050
T1 sequence (Q7Z7D3 25-282): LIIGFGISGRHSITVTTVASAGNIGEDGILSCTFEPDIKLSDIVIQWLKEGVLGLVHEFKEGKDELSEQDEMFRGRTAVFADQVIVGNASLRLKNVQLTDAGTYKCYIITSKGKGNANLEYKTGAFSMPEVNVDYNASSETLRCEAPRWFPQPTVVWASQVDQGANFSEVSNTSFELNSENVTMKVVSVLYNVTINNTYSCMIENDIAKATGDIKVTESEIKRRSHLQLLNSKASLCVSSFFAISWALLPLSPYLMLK
Protocol: (§2) Recombinant human B7-H4 protein (R&D Systems #6576-B7-050) was coated onto the surface of each well of a 96-well plate by incubation with the peptide (1 μg/mL in PBS), overnight at 4° C. The wells were then blocked by incubation with BSA (5% in PBS, containing 0.1% Tween 20 (PBST)) for 1 hour at room temperature. […] The unbound test article was removed by washing with PBST (3×). A secondary anti-human IgG conjugated to HRP (0.16 μg/mL in PBST) was incubated in each well for 1 hour. The unbound secondary antibody was removed by washing with PBST (3×). The HRP substrate, TMB, was added to each well and incubated until a blue color was visible. The reaction was quenched by the addition of sulfuric acid (0.2 N, 100 μL). […] The values were plotted using GraphPad Prism software. EC50 values were determined by four-parameter curve fitting.

human B7-H4 [4] = biological target: T1, human B7-H4; test: ELISA binding of XMT-1603 and XMT-1604 cytotoxic drug conjugates to human B7-H4 protein (Example 29); details: Table 8
Protocol: as §2

human B7-H4 [5] = biological target: T1, human B7-H4; test: ELISA binding to human B7-H4 (Example 30); details: mean of two studies
Protocol: as §2
(§3) Proteins used in these studies were: human B7-H4 (R&D Systems; 6576-B7-050), monkey B7-H4 (Creative Biomart; VTCN1-1519R), rat (R&D Systems 10085-B7), and mouse (Creative Biomart; VTCN1-1519R).

monkey B7-H4 = test: ELISA binding to monkey B7-H4 (Example 30); details: mean of two studies
Protocol: as §2, §3

rat B7-H4 = biological target: T2, rat B7-H4 (Rattus norvegicus, UniProt Q501W4); test: ELISA binding to rat B7-H4 (Example 30); details: mean of two studies
T2 construct: purchased R&D Systems 10085-B7
T2 sequence (Q501W4 25-257): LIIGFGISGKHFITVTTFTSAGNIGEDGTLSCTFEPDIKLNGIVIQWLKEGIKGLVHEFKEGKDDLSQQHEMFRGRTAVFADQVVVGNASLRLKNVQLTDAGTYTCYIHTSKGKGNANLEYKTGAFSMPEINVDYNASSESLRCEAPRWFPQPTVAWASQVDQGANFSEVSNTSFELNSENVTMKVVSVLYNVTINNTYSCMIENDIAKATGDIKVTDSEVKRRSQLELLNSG
Protocol: as §2, §3

mouse B7-H4 = biological target: T3, mouse B7-H4 (Mus musculus, UniProt Q7TSP5); test: ELISA binding to mouse B7-H4 (Example 30); details: mean of two studies
T3 construct: purchased Creative Biomart VTCN1-1519R
T3 sequence (Q7TSP5 25-257): T2 sequence (Q501W4 25-257) with H109R, E228Q
Protocol: as §2, §3

MX-1 cells [6] = test: Cell surface binding by FACS, MX-1 cells (Example 32); design: species or system human; details: mean of two replicate experiments
Protocol: (§4) MX-1 cells were grown in DMEM:F12K (Life Technologies) with 10% FBS (Life Technologies) and 1% penicillin/streptomycin (Life Technologies). […] For staining, cells were detached by treatment with Accutase cell detachment solution (Innovative Cell Technologies). The detached cells were triturated in media, and plated in 96 well U-bottom plates, at a density of 50,000 cells in medium (75 μL). […] The cells were washed with ice cold PBS (3×), pelleted at 1,000×RCF between each wash step, and resuspended in RPMI-1640 with 2% goat serum (100 μL) and a secondary fluorescently labeled antibody, Alexa Fluor® 647-labelled goat anti-human IgG (5 μg/mL, Life Technologies) for 1 hour on ice. The cells were washed with ice cold PBS (3×) and resuspended in ice cold PBS with 1% paraformaldehyde (100 μL). The fluorescence per cell was determined by analyzing 5,000 cells for each treatment on the flow cytometer. The median fluorescence value for each treatment was plotted, and EC50 values were calculated with Graphpad Prism software by four-parameter curve fitting.
(§5) HEK-293-B7-H4 cells were grown in EMEM (ATCC), 10% FBS, 1% penicillin/streptomycin, and 3 μg/ml puromycin (Life Technologies) and untransfected HEK-293 cells were grown in EMEM, 10% FBS, 1% penicillin/streptomycin. […] Results are mean values for two replicate experiments for each test article.

[7] = system: HEK-293 cells stably transfected with human B7-H4; test: Cell surface binding by FACS, HEK-293-B7-H4 cells (Example 32); details: mean of two replicate experiments
Protocol: as §4, §5

[8] = system: untransfected HEK-293 cells; test: Cell surface binding by FACS, untransfected HEK-293 cells (Example 32); details: mean of two replicate experiments
Protocol: as §4, §5

human B7-H4 [9] = biological target: T1, human B7-H4; test: ELISA binding of STING agonist conjugates to recombinant human B7-H4 protein (Example 34); details: Table 13
Protocol: as §2

MX-1 cells [10] = test: Cell surface binding of STING agonist conjugates by FACS, MX-1 cells (Example 35); design: species or system human; details: Table 14
Protocol: as §4

[11] = system: STING pathway in THP1-Dual cells co-cultured with MX-1 cancer cells; test: STING activation, cancer cell/THP1-IRF3-Luciferase reporter cell co-culture assay (Example 36); details: 24 hours, concentrations based on payload, read-out: THP1-Dual cells/MX-1 co-cultures EC50
Protocol: The induction of the STING pathway in immune cells by B7-H4-targeted STING agonist conjugates was evaluated by a cancer cell/THP1-IRF3-Luciferase reporter cell co-culture assay. MX-1 cells were seeded in 96-well CellBind surface tissue culture plates (17,000 cells/well) and allowed to attach for 4 hours in RPMI-1640 medium with 10% FBS and 1% penicillin/streptomycin. […] THP1-Dual™ Cells (InvivoGen) (50,000 cells) were then added to each well and the incubation continued for 24 hours at 37° C. in a humidified atmosphere of 5% CO2. Cell culture supernatants (20 μL) from each incubated sample was added to resuspended QUANTI-Luc (InvivoGen) (50 μL) and the luminescent signal was measured immediately using a SpectraMax M5 plate reader (Molecular Devices). The EC50 values were determined from the dose response curve.

Question: Palivizumab was tested. Which “% Population Live cells (gated on single)” value ([1]; mean ± SD of triplicate wells, two unexplained lines of values per population) did it give?
Answer: 78.2 ± 0.4% and 85.6 ± 11.2%

Question: What about the “% Population CD45+ (gated on live cells)” value ([1]; mean ± SD, two lines of values) of the same compound?
Answer: 69.0 ± 5.1% and 43.0 ± 11.0%

Question: And the “% Population Proliferating CD4+ (gated on single/live cells/CD45+)” value ([1]; mean ± SD, two lines of values)?
Answer: 32.9 ± 2.6% and 22.4 ± 2.3%

Question: What about the “% Population Proliferating CD8+ (gated on single/live cells/CD45+)” value ([1]; mean ± SD, two lines of values) of the same compound?
Answer: 9.5 ± 1.6% and 3.5 ± 0.8%

Question: What about the “% Population CD45+ (gated on live cells)” value [2] of the same compound?
Answer: 48.3 ± 4.1% and 50.1 ± 3.7%

Question: And the “% Population Live cells (gated on single)” value [2]?
Answer: 80.1 ± 2.0% and 95.5 ± 2.8%

Question: And the “% Population Proliferating CD8+ (gated on single/live cells/CD45+)” value [2]?
Answer: 3.4 ± 0.5% and 1.1 ± 0.6%

Question: What about the pEC50 (human B7-H4 [3]) of the same compound?
Answer: < 7.00

Question: What about the pEC50 (human B7-H4 [4]) of the same compound?
Answer: < 7.00

Question: And the pEC50 (human B7-H4 [5])?
Answer: < 7.00

Question: And the pEC50 (monkey B7-H4)?
Answer: < 7.00

Question: What about the pEC50 (rat B7-H4) of the same compound?
Answer: < 7.00

Question: And the pEC50 (mouse B7-H4)?
Answer: < 7.00

Question: And the pEC50 (MX-1 cells [6])?
Answer: < 7.00

Question: And the pEC50 [7]?
Answer: < 7.00

Question: And the pEC50 [8]?
Answer: < 7.00

Question: And the pEC50 (human B7-H4 [9])?
Answer: < 7.00

Question: What about the pEC50 (MX-1 cells [10]) of the same compound?
Answer: < 6.70

Question: `Cc1ccc2c(=O)c3cccc(CC(=O)O)c3oc2c1C` [STING agonist] was tested. Which pEC50 [11] did it give?
Answer: < 7.00
